Literature values in patent EP1227812B1 (SCHERING CORPORATION, priority 1999, dated 2001).

Details: eight subjects tested, topical azatadine

For CN1CCC(=C2c3ccccc3CCc3cccnc32)CC1 [Azatadine, azatadine], the drowsiness is given as “drowsiness in one of the eight subjects tested”.
